Patent US20150057316A1, “NOVEL SULFONATE-BASED TRIMEBUTINE SALTS” (GICARE PHARMA INC., priority 2012, published 2015)

Tests used:
[1] = system: Sprague-Dawley rats; assay: single dose acute and 7-day range-finding oral toxicity study in rats; format: in vivo
Experimental: Consequently, a single dose acute and 7-day range-finding oral toxicity study in Sprague-Dawley rats was conducted. During the single dose acute phase of the study, the test article was administered as a single dose by oral gavage to groups of 3 male and 3 female Sprague-Dawley rats, each group receiving a higher or lower dose level, based on the reaction of the previous group during the first day of the observation period.
Upon completion of the 7-day treatment period, all animals were euthanized and subjected to a gross necropsy examination (Day 8 study). Clinical signs (ill health, behavioral changes, etc.) were recorded on all surviving animals. Clinical pathology evaluations (hematology, clinical chemistry and coagulation parameters) were performed on all surviving animals (single dose acute & range-finding phases) prior to their scheduled necropsy. Blood samples were collected terminally from the abdominal aorta (while anesthetized with isoflurane).

[2] = system: Beagle dogs; assay: MTD determination following p.o. administration in dogs; format: in vivo
Experimental: For MTD determination, the compound was administered once on each occasion by oral gavage, in an incremental fashion to animals, until the maximum tolerated dose is considered to have been reached. This dose was established at 2,000 mg/kg, i.e., the highest dose administered in animals. […] The animal was back to normal activity levels approximately 1 hr post dosing.

In the case of `CCC(COC(=O)c1cc(OC)c(OC)c(OC)c1)(c1ccccc1)N(C)C.NC(=S)c1cccc(S(=O)(=O)O)c1` (centres unmarked) [Example 20], the “dose well tolerated over 7 days without significant clinical signs of toxicity” value ([1]; male and female rats, once daily oral gavage, 7 days) was 1,000 mg/kg, the “death and clinical signs of toxicity” value ([1]; male and female rats, single oral dose up to 2,000 mg/kg) was “no death and no significant clinical signs of toxicity” and the single dose well-tolerated ([1]; male and female rats, single oral gavage) was “up to 2,000 mg/kg”. For the same compound, the “deaths during 7-day repeat dose regimen” value ([1]; rats, 2,000 mg/kg once daily p.o., deaths after 3 and 5 days) was “two animals from the 2,000 mg/kg dose group died”, the “clinical observations, male dog” value ([2]; 2,000 mg/kg p.o.) was “limited to vomiting a few min following dosing administration” and the “clinical signs, female dog” value ([2]; 2,000 mg/kg p.o.) was “Decreased activity level, vomiting, bowel movement, yellowish fluid fecal consistency, vocalization about 15-20 min post-dose, decreased respiration, weak behavior, eyes partially closed, and mild transient tremors”. For the same compound, the “blood pressure, male dog” value ([2]; 2,000 mg/kg p.o., 30 min post dose compared to pre-dose) was “dropped slightly”, the “blood pressure, female dog” value ([2]; 2,000 mg/kg p.o., approximately 30 min post dose) was “almost no change in blood pressure” and the “time back to normal activity levels, female dog” value ([2]; 2,000 mg/kg p.o., post dosing) was “approximately 1 hr”. The “doses orally administered well tolerated” value ([2]; Beagle dogs, oral gavage) was “up to 2,000 mg/kg” and the “maximum tolerated dose (MTD)” value ([2]; Beagle dogs, oral gavage, highest dose administered) was 2,000 mg/kg.
